Several values for one entry are separate records, joined by “and”; a condition that tells them apart may be missing. Equal entries are not always repeated. After the bases stand the sugars from the 5' end (letter, count) and the backbone: PS all phosphorothioate, else s phosphorothioate and o phosphodiester by linkage. Methylation of C is not given here. e = 2'-O-(2-methoxyethyl) (MOE); k = constrained ethyl (cEt); d = 2'-deoxy (DNA)
Target: IRF4
Details: ASO

GGTTGGCTGGTCTTTG (sugars k2 d9 e3 k2, PS)
target mRNA inhibition (MM.1R, 0.0625 µM): 44%
target mRNA inhibition (MM.1R, 0.25 µM): 52%
target mRNA inhibition (MM.1R, 1 µM): 69% and 65%
target mRNA inhibition (MM.1R, 4 µM): 84%

GTAAAGCCCAAAGTTA (sugars k3 d10 k3, PS)
target mRNA inhibition (SK-MEL-28, 4 µM): 27%

GTAAAGGAGTGCAGGA (sugars k3 d10 k3, PS)
target mRNA inhibition (SK-MEL-28, 4 µM): 9%

GTAACAACGACACACG (sugars k3 d10 k3, PS)
target mRNA inhibition (SK-MEL-28, 4 µM): 59%

GTAACAGGCTATCAGG (sugars k3 d10 k3, PS)
target mRNA inhibition (SK-MEL-28, 4 µM): 45%

GTAATAGTAAATATCC (sugars k3 d10 k3, PS)
target mRNA inhibition (SK-MEL-28, 4 µM): 61%

GTACTTGCCGCTGTCG (sugars k4 d8 k4, PS)
target mRNA inhibition (SK-MEL-28, 4 µM): 36%

GTACTTTCTCAAAACC (sugars k3 d10 k3, PS)
target mRNA inhibition (SK-MEL-28, 4 µM): 70%

GTAGTATGAGAAACGG (sugars k3 d10 k3, PS)
target mRNA inhibition (SK-MEL-28, 4 µM): 83% and 80%

GTATGAGAAACGGCCT (sugars k3 d10 k3, PS)
target mRNA inhibition (SK-MEL-28, 4 µM): 59%

GTATTACTCTTAGGCA (sugars k3 d10 k3, PS)
target mRNA inhibition (MM.1R, 0.0625 µM): 13%
target mRNA inhibition (MM.1R, 0.074 µM): 15%
target mRNA inhibition (MM.1R, 0.222 µM): 7%
target mRNA inhibition (MM.1R, 0.25 µM): 24%
target mRNA inhibition (MM.1R, 0.666 µM): 21%
target mRNA inhibition (MM.1R, 1 µM): 41%
target mRNA inhibition (MM.1R, 2 µM): 51%
target mRNA inhibition (MM.1R, 4 µM): 69%
target mRNA inhibition (SK-MEL-28, 4 µM): 64%

GTATTTATGCCCTCGC (sugars k3 d10 k3, PS)
target mRNA inhibition (SK-MEL-28, 4 µM): 53%

GTCAAACCCTACTGGG (sugars k3 d10 k3, PS)
target mRNA inhibition (SK-MEL-28, 4 µM): 31%

GTCAAACTATAATTGG (sugars k3 d10 k3, PS)
target mRNA inhibition (SK-MEL-28, 4 µM): 61%

GTCAAAGAGCTTGCAG (sugars k3 d10 k3, PS)
target mRNA inhibition (SK-MEL-28, 4 µM): 44%

GTCAACATACACATAG (sugars k3 d10 k3, PS)
target mRNA inhibition (SK-MEL-28, 4 µM): 58%

GTCACAAAGCAATTGA (sugars k3 d10 k3, PS)
target mRNA inhibition (SK-MEL-28, 4 µM): 67%

GTCATGGGACATTGGT (sugars k3 d10 k3, PS)
target mRNA inhibition (MM.1R, 1 µM): 26%

GTCCAGGTTGCTGGCG (sugars k3 d10 k3, PS)
target mRNA inhibition (SK-MEL-28, 4 µM): 53%

GTCCATGGGAGATCCG (sugars k3 d10 k3, PS)
target mRNA inhibition (SK-MEL-28, 4 µM): 52%

GTCCTGCTTGCCCGCG (sugars k4 d8 k4, PS)
target mRNA inhibition (SK-MEL-28, 4 µM): 14%

GTCTACATCTACTCCA (sugars k3 d10 k3, PS)
target mRNA inhibition (SK-MEL-28, 4 µM): 38%

GTCTACTGCTGTACTT (sugars k3 d10 k3, PS)
target mRNA inhibition (SK-MEL-28, 4 µM): 52%

GTCTCTCACGCAGTGC (sugars k3 d10 k3, PS)
target mRNA inhibition (SK-MEL-28, 4 µM): 50%

GTCTTAGGTGTTCAAG (sugars k3 d10 k3, PS)
target mRNA inhibition (SK-MEL-28, 4 µM): 56%

GTGAAACTGAGAGTGC (sugars k3 d10 k3, PS)
target mRNA inhibition (SK-MEL-28, 4 µM): -20%

GTGAACATGCCACTCA (sugars k3 d10 k3, PS)
target mRNA inhibition (SK-MEL-28, 4 µM): 62%

GTGACCCACATAACTC (sugars k3 d10 k3, PS)
target mRNA inhibition (MM.1R, 1 µM): 7%

GTGACTTAATTCTGGG (sugars k3 d10 k3, PS)
target mRNA inhibition (SK-MEL-28, 4 µM): 51%

GTGACTTGCATCCATG (sugars k3 d10 k3, PS)
target mRNA inhibition (MM.1R, 1 µM): 62%

GTGATGTCAGGTTTTC (sugars k2 d9 e3 k2, PS)
target mRNA inhibition (MM.1R, 1 µM): 38%

GTGATGTCAGGTTTTC (sugars kddddddddddkekek, PS)
target mRNA inhibition (MM.1R, 1 µM): 22%

GTGCACTCGCGCAAAG (sugars k3 d10 k3, PS)
target mRNA inhibition (MM.1R, 1 µM): -5%

GTGCAGTTCCGTAGTC (sugars k3 d10 k3, PS)
target mRNA inhibition (SK-MEL-28, 4 µM): 21%

GTGCTCTTACAGCCTC (sugars k3 d10 k3, PS)
target mRNA inhibition (MM.1R, 1 µM): -15%

GTGGCATCATGTAGTT (sugars k3 d10 k3, PS)
target mRNA inhibition (SK-MEL-28, 4 µM): 27%

GTGGGAGTCGGAGCTC (sugars k3 d10 k3, PS)
target mRNA inhibition (SK-MEL-28, 4 µM): 17%

GTGTCTAAAGTCCCAT (sugars kdddddddddkekeke, PS)
target mRNA inhibition (MM.1R, 1 µM): 5%

GTGTCTAAAGTCCCAT (sugars kkdddddddddekeke, PS)
target mRNA inhibition (MM.1R, 1 µM): 32% and 23%

GTGTCTAAAGTCCCAT (sugars kkdddddddddkdkdk, PS)
target mRNA inhibition (MM.1R, 1 µM): 20% and 5%

GTGTGCTTGCCAAGCC (sugars kddddddddddkekek, PS)
target mRNA inhibition (MM.1R, 1 µM): 40% and 23%

GTGTGCTTGCCAAGCC (sugars kkddddddddddkeke, PS)
target mRNA inhibition (MM.1R, 1 µM): 37% and 47%

GTGTGCTTGCCAAGCC (sugars kkdddddddddkdkdk, PS)
target mRNA inhibition (MM.1R, 1 µM): 59%

GTGTGGCTGATCCGGG (sugars k3 d10 k3, PS)
target mRNA inhibition (SK-MEL-28, 4 µM): 27%

GTGTGTGCACTCGCGC (sugars k3 d10 k3, PS)
target mRNA inhibition (MM.1R, 1 µM): 19%

GTGTTTGCCATGGTAT (sugars k3 d10 k3, PS)
target mRNA inhibition (MM.1R, 0.0625 µM): -1%
target mRNA inhibition (MM.1R, 0.25 µM): 13%
target mRNA inhibition (MM.1R, 1 µM): 57% and 40%
target mRNA inhibition (MM.1R, 4 µM): 70%

GTGTTTGGTGGGAATC (sugars k3 d10 k3, PS)
target mRNA inhibition (SK-MEL-28, 4 µM): 46%

GTTAAAGGAGTGCAGG (sugars k3 d10 k3, PS)
target mRNA inhibition (SK-MEL-28, 4 µM): -14%

GTTAGCTACAAAGAGC (sugars k3 d10 k3, PS)
target mRNA inhibition (SK-MEL-28, 4 µM): 41%

GTTCAGAAACCCTCAT (sugars k3 d10 k3, PS)
target mRNA inhibition (SK-MEL-28, 4 µM): 13%

GTTGAAAGAACCAAGC (sugars k3 d10 k3, PS)
target mRNA inhibition (SK-MEL-28, 4 µM): 11%

GTTGGCACAATTCTCT (sugars k3 d10 k3, PS)
target mRNA inhibition (MM.1R, 1 µM): 22% and 16%

GTTGGCTGGTCTTTGT (sugars kddddddddddkekek, PS)
target mRNA inhibition (MM.1R, 1 µM): 23%

GTTGGCTGGTCTTTGT (sugars kkddddddddddkeke, PS)
target mRNA inhibition (MM.1R, 1 µM): 25%

GTTGGCTGGTCTTTGT (sugars kkdddddddddkdkdk, PS)
target mRNA inhibition (MM.1R, 1 µM): 56%

GTTGTAAATGAGTCGG (sugars kkdddddddddekeke, PS)
target mRNA inhibition (MM.1R, 1 µM): 48%

GTTGTAAATGAGTCGG (sugars kkdddddddddkdkdk, PS)
target mRNA inhibition (MM.1R, 0.074 µM): 34%
target mRNA inhibition (MM.1R, 0.222 µM): 45%
target mRNA inhibition (MM.1R, 0.666 µM): 64%
target mRNA inhibition (MM.1R, 1 µM): 58%
target mRNA inhibition (MM.1R, 2 µM): 85%

GTTGTCTGGCTAGCAG (sugars k4 d8 k4, PS)
target mRNA inhibition (SK-MEL-28, 0.185 µM): 6% and 4%
target mRNA inhibition (SK-MEL-28, 4 µM): 52%
target mRNA inhibition (SK-MEL-28, 5 µM): 42% and 44% and 53%
target mRNA inhibition (SK-MEL-28, 15 µM): 62% and 65% and 83%

GTTTATTTCCTACTCT (sugars k4 d8 k4, PS)
target mRNA inhibition (SK-MEL-28, 4 µM): 44%

GTTTGCCATGGTATTT (sugars k3 d10 k3, PS)
target mRNA inhibition (MM.1R, 1 µM): 41% and 50%

TAAAACCTCATCCCCT (sugars k3 d10 k3, PS)
target mRNA inhibition (SK-MEL-28, 4 µM): -26%

TAAAACTGCGCTCTCT (sugars k3 d10 k3, PS)
target mRNA inhibition (MM.1R, 1 µM): -14%

TAAAGAATGAGGGTCA (sugars k3 d10 k3, PS)
target mRNA inhibition (SK-MEL-28, 4 µM): 45%

TAAAGACCTTAACCAA (sugars k3 d10 k3, PS)
target mRNA inhibition (SK-MEL-28, 4 µM): 30%

TAACTGTATGGAACCC (sugars k3 d10 k3, PS)
target mRNA inhibition (MM.1R, 1 µM): 28%

TAAGATCCCACGAAGG (sugars k3 d10 k3, PS)
target mRNA inhibition (MM.1R, 1 µM): 9%

TAAGGCACTACTTCCA (sugars k3 d10 k3, PS)
target mRNA inhibition (MM.1R, 1 µM): 10%

TAATCTGTATCATGCA (sugars k3 d10 k3, PS)
target mRNA inhibition (MM.1R, 1 µM): 22%

TAATTATGCAGAAGCT (sugars k3 d10 k3, PS)
target mRNA inhibition (SK-MEL-28, 4 µM): -3%

TACACCTCTTCACTAC (sugars k3 d10 k3, PS)
target mRNA inhibition (MM.1R, 1 µM): -18%

TACATTGAGGCATACA (sugars k3 d10 k3, PS)
target mRNA inhibition (SK-MEL-28, 4 µM): 41%

TACCATGCATAGTGAT (sugars k3 d10 k3, PS)
target mRNA inhibition (SK-MEL-28, 4 µM): 44%

TACTAATTCCATAGAG (sugars k3 d10 k3, PS)
target mRNA inhibition (SK-MEL-28, 4 µM): 26%

Reference: the OligoGym collection
